Calls of active or inactive are those of the source. How the calls were made is not given here.
experiment: growth inhibition of yeast carrying parasite Hsp90, dose response, anti-malarial Hsp90 inhibitor project, ATP luminescence, 48 h, cherry-picked samples (AID 540268); conditions: yeast expressing the parasite Hsp90, ATP luminescence;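 on activity change, negative = inhibition: 0% = neutral control wells and -100% = positive control wells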

| SMILES | AC50 |
| --- | --- |
| Cc1c(Cc2ccccc2)c(NCCN(C)C)n2c(nc3ccccc32)c1C#N | 701 nM |
| COC(=O)[C@@H]1[C@@H](C#N)C2(c3ccccc3-c3ccccc32)N(c2ccc(Cl)cc2)N1C#N | 2800 nM |
| COc1ccc(C)cc1N=Nc1ccc(O)c2ncccc12 | 1180 nM |
| Clc1ccc(C(c2ccc(Cl)cc2)n2cc[n+](CC(OCc3ccc(Cl)cc3Cl)c3ccc(Cl)cc3Cl)c2)cc1 (stereo unspecified) | 5470 nM |
| O=C1C(Cl)=C(NCCc2ccccc2)C(=O)c2ccccc21 | 556 nM |
| CCc1ccccc1NC(=O)c1cccc(Oc2ccc([N+](=O)[O-])cc2Cl)c1 | 4120 nM |
| CC(C)c1ccc(-c2cc(C(=O)N3N=C(C(F)F)CC3(O)C(F)F)c3ccccc3n2)cc1 (stereo unspecified) | 4240 nM |
| O=C1C=CC(=O)N1c1ccc2ccccc2c1 | 568 nM |
| Cc1ccc(NN2C(=O)C=C(c3ccc(Cl)cc3)C2=O)cc1 | < 195 nM |
| Cc1cc(/C=C2\SC(=S)N(C)C2=O)c(C)n1-c1ccc(O)cc1 | 8330 nM |
| Oc1ccc(-c2nc3ccc4ccccc4c3c3c2CCC3)cc1O | 8290 nM |
| COC1CCC(OC2CC(C3(C)CCC4(CC(O)C(C)C(C(C)/C=C(\C)C(=O)C(C)CC(C)C(=O)O)O4)O3)OC3(OC(C4OC(O)(CO)C(C)CC4C)CC3C)C2C)OC1C (stereo unspecified) | 4840 nM |
| COc1ccccc1OCCNC(=O)c1ccc(Br)cc1 | < 195 nM |
| O=[N+]([O-])c1ccc(O)c(C2CCCCC2)c1 | 4840 nM |
| CCCCCCCCNC(=O)/C(C#N)=C/c1ccccc1[N+](=O)[O-] | 4690 nM |
| CCOC(=O)COc1ccc2ccccc2c1/C=C/[N+](=O)[O-] | 4460 nM |
| COC[C@H]1OC(=O)c2coc3c2[C@@]1(C)C1=C(C3=O)[C@@H]2CCC(=O)[C@@]2(C)C[C@H]1OC(C)=O | 215 nM |
| O=C(/C=C/c1cccc(Cl)c1)c1ccc([N+](=O)[O-])o1 | 840 nM |
| CCCc1cc(NCc2ccccn2)n2nc(C)c(-c3ccccc3)c2n1 | 1290 nM |
| CCCc1cc(=O)oc2cc(OCc3ccc(C(=O)O)cc3)ccc12 | 2730 nM |
| CC(Oc1ccc(Cl)cc1)C(=O)NNC(=S)NC(=O)c1ccco1 (stereo unspecified) | 1940 nM |
| COc1ccc(C2=CC3=C(Br)C(=O)C(C)(OC(=O)c4ccco4)C(=O)C3=CO2)cc1 (stereo unspecified) | 3000 nM |
| O=C(c1ccc(Cl)cc1)N1CCN(c2ccc(F)cc2)CC1 | 4470 nM |
| CCS(=O)(=O)Nc1cccc(-c2cc(-c3ccccc3)c3cc(C)ccc3n2)c1 | 4550 nM |
| Cc1ccc2c(c1C)-c1c(ccc(C)c1C)C(=O)C2=O | 2670 nM |
| CC1C/C(=C/c2ccncc2)C(=O)/C(=C/c2ccncc2)C1 (stereo unspecified) | 2830 nM |

| SMILES | AC50 |
| --- | --- |
| Oc1c(Br)cc(Br)cc1C=NCc1ccc(F)cc1 | 8500 nM |
| O=S(=O)(NC1CC2CCC1C2)c1ccc(Br)cc1 (stereo unspecified) | 860 nM |
| Nc1c(C(=O)Nc2ccc3c(c2)OCCO3)nnn1Cc1ccccc1Cl | 5480 nM |
| Cc1onc(-c2ccccc2)c1C(=O)NC(=S)NNC(=O)c1ccccc1O | 2240 nM |
| CN1CCN(C(c2ccccn2)c2cc(Cl)c3cccnc3c2O)CC1 (stereo unspecified) | 7880 nM |
| Oc1ccc(O)c2c1C1(Cl)C(Cl)=C(Cl)C2(Cl)C1(Cl)Cl | 3870 nM |
| CCCCCCC(=O)N(O)C1CC(=O)N(c2ccc(C)cc2)C1=O (stereo unspecified) | 829 nM |
| N#Cc1c2ccc([N+](=O)[O-])cc2[n+]([O-])n1-c1ccccc1 | 2100 nM |
| COc1ccc(N2CCN(c3c(S(=O)(=O)c4ccccc4)cnc4ccc(OC)cc34)CC2)cc1 | 3900 nM |
| CCN(CC)C1CC(=O)N(c2cccc(Cl)c2)C1=O (stereo unspecified) | 970 nM |
| Cc1ccc(C(=O)c2coc3c2C(=O)C(=O)c2ccccc2-3)cc1 | 8160 nM |
| CCN1/C(=C/c2ccc3cc(C)ccc3[n+]2CC)Sc2cc(C)ccc21 | 5540 nM |
| CCCCCCCCCCCCCCCC[n+]1ccc(/C=N/O)cc1 | < 195 nM |
| Cc1cccc(N2C(=O)C=CC2=O)c1 | 372 nM |
| CCN(CC)c1ccc(/C=C2/SC(=O)N(C(C)C)C2=O)o1 | 13500 nM |
| Oc1cccc2ccc(/C=C/c3ccccc3Cl)nc12 | 16300 nM |
| COc1ccccc1NS(=O)(=O)c1cc(C(=O)N2CC(C)CC(C)C2)ccc1C (stereo unspecified) | 5810 nM |
| O=C(/C=C/c1ccccc1)CCN1CCOCC1 | 2470 nM |
| O=C1C=CC2(O[C@H](c3ccccc3)[C@@H](c3ccccc3)O2)[C@H](Sc2ccccc2O)C1 | 3460 nM |
| CC1=C(C)/C(=N\OS(=O)(=O)c2ccc(C)cc2)C=CC1=O | 1220 nM |
| COc1cccc2c1C(=O)c1c(O)c3c(c(O)c1C2=O)CC(O)(C(=O)CO)CC3OC1CC(N(C)C)C(O)C(C)O1 (stereo unspecified) | 1090 nM |
| Cc1ccc(OCC(=O)NNC(=S)NC(=O)C(C)(C)C)c(Br)c1 | 5050 nM |
| Cc1cc(N2CCN(C(=O)c3ccco3)CC2)n2ncc(-c3ccccc3)c2n1 | 2310 nM |
| O=C(CC(n1cncn1)C(Cl)(Cl)Cl)c1ccc([N+](=O)[O-])cc1 (stereo unspecified) | 4420 nM |
| CC(=O)Oc1ccccc1C(=O)C=Cc1cccc([N+](=O)[O-])c1 | 1660 nM |

same assay, conditions: yeast expressing the parasite Hsp90, ATP luminescence, at 26 µM (top of the series)

| SMILES | activity change, negative = inhibition |
| --- | --- |
| N/C(Cc1ccc(Cl)c(Cl)c1)=N\OC(=O)c1ccc(Br)o1 | 66.7% (inactive) |
| CCOC(=O)C1=C(Cc2ccc(Cl)cc2)C(=O)c2ccccc2C1=O | -104% (inactive) |
| O=C(/C(=C\c1ccccc1)c1nc2ccccc2[nH]1)c1ccc(Cl)cc1 | -31.8% (inactive) |
| CN(C)c1ccc(-c2cc(O)c3ncccc3c2)cc1 | 26.4% (inactive) |
| Cc1ccc2nc(-c3ccc(NS(=O)(=O)c4ccc(F)cc4)cc3)sc2c1 | 144% (inactive) |
